Changes are numbered by the printed parent chain.
Columns and labels:
[1] = biological target: T1, human CYP51 (Homo sapiens, UniProt Q16850); assay: CYP51 inhibitor binding assay
T1 sequence (Q16850 1-509): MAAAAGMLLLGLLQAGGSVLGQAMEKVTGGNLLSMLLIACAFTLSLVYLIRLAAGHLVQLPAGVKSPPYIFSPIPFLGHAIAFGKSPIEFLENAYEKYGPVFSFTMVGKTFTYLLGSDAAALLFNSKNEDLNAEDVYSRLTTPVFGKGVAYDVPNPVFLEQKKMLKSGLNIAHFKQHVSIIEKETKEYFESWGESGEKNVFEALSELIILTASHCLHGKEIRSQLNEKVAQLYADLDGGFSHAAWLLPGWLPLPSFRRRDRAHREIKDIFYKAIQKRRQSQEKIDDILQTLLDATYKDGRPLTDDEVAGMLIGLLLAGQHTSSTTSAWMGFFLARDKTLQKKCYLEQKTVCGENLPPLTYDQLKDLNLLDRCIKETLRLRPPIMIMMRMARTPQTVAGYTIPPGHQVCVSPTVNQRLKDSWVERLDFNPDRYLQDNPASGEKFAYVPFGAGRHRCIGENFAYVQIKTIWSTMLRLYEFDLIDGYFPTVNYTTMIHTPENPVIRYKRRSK

[2] = biological target: T2, human CYP51 (WT) (Homo sapiens, UniProt Q16850); assay: CYP51 activity assay, inhibition of lanosterol 14α-demethylation; assay type: biochemical; settings: WT enzyme, 1 h reaction
T2 sequence (Q16850 1-509): T1 sequence (Q16850 1-509)

[3] = biological target: T3, T318I mutant of human CYP51 (Homo sapiens, UniProt Q16850, T324I); assay: CYP51 activity assay, inhibition of the T318I mutant; assay type: biochemical
T3 sequence (Q16850 1-509 T324I): T1 sequence (Q16850 1-509) with T324I

[4] = biological target: T3, T318I mutant of human CYP51; assay: CYP51 inhibitor binding assay, T318I mutant
[5] = quoted in legend of Figure 1, reference not given; cited from earlier work

O=C(N[C@@H](Cn1ccnc1)c1ccc(-c2ccc(F)cc2)cc1F)c1ccc(-c2nnc(-c3ccccc3)o2)cc1 [VFV]
Soret band maximum ([1]; inhibitor-bound human CYP51, red shift from 417 nm): 425 nm

O=C(N[C@@H](Cn1ccnc1)c1ccc(Cl)cc1Cl)c1ccc(-c2nnc(-c3ccccc3)o2)cc1 [VNI, (R)-N-(1-(2,4-dichlorophenyl)-2-(1 H-imidazol-1-yl)ethyl)-4-(5-phenyl-1,3,4-oxadiazol-2-yl)benzamide]
Kd [1]: 4.7 µM
inhibition of human CYP51 activity (in words) [2]: does not inhibit the WT human CYP51 at all
IC50 [3]: > 25 µM
Kd [4]: 0.4 µM
increase of binding affinity for the mutant ([4]; T318I vs WT enzyme): approximately 12 fold

C[C@@H](NCCCc1cccc(C(F)(F)F)c1)c1cccc2ccccc12 [cinacalcet]
log P [5]: 6.5

CCC(C)n1ncn(-c2ccc(N3CCN(c4ccc(OCC5COC(Cn6cncn6)(c6ccc(Cl)cc6Cl)O5)cc4)CC3)cc2)c1=O (stereo not drawn) [itraconazole]
log P [5]: 6.8

CC[C@@H]([C@H](C)O)n1ncn(-c2ccc(N3CCN(c4ccc(OC[C@@H]5CO[C@@](Cn6cncn6)(c6ccc(F)cc6F)C5)cc4)CC3)cc2)c1=O [posaconazole]
log P [5]: 5.5

From paper PMC6881533 (Journal of medicinal chemistry, 2019)
